Reference: ChEMBL document CHEMBL1201862, “PubChem BioAssay data set” (2004)
Calls of active or inactive are those of the source.

Legend:
Assay type in all cases: functional
[1] = biological target: T1, Sentrin-specific protease 6 (Homo sapiens, UniProt Q9GZR1);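 further: Luminescence-based dose-response confirmatory assay of SENP6 inhibition, following up an ultra-high-throughput screen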
T1 sequence (Q9GZR1 whole entry): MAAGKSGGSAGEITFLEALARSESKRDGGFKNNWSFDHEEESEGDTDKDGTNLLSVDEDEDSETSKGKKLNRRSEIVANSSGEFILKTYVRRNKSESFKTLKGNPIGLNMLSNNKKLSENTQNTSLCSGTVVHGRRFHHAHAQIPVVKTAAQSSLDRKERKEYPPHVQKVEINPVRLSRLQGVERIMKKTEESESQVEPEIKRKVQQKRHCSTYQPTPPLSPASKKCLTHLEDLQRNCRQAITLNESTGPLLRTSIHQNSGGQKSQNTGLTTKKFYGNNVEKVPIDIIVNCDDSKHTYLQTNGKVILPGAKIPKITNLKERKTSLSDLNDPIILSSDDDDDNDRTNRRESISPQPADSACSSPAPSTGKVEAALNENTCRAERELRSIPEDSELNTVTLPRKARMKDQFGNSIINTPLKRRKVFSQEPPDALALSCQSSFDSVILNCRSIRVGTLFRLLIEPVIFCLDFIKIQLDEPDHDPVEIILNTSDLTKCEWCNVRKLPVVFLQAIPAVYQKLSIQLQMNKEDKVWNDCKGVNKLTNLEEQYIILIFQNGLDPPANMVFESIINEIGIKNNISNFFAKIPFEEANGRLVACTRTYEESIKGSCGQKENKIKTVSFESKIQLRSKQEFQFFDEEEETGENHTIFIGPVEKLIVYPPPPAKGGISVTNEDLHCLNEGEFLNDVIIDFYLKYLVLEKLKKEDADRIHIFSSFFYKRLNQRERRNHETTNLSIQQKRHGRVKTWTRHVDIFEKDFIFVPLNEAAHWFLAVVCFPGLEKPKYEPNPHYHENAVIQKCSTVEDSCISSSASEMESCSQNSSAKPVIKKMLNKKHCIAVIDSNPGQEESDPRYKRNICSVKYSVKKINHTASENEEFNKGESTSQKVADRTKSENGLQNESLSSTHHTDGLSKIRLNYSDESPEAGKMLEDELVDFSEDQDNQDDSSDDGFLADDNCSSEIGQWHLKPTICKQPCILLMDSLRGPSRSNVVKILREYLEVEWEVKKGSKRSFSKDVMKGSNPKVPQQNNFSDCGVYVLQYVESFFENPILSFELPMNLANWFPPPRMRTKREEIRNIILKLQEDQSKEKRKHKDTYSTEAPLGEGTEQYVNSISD

[2] = biological target: Tyrosine-protein kinase SYK (Homo sapiens, UniProt P43405)
[3] = biological target: MAP kinase-activated protein kinase 3 (Homo sapiens, UniProt Q16644);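 further: value comes from a kinome-wide profiling panel in which MAPKAPK3 is one of the panel members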
[4] = biological target: Casein kinase I isoform gamma-1 (Homo sapiens, UniProt Q9HCP0);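 further: measured as the CSNK1G1 member of a kinome profiling panel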
[5] = biological target: Calcium/calmodulin-dependent protein kinase type II subunit gamma (Homo sapiens, UniProt Q13555)
[6] = biological target: MAP kinase-activated protein kinase 2 (Homo sapiens, UniProt P49137);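 further: measured as one member of a kinome-wide kinase panel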
Sequence of MAP kinase-activated protein kinase 2 (P49137 whole entry): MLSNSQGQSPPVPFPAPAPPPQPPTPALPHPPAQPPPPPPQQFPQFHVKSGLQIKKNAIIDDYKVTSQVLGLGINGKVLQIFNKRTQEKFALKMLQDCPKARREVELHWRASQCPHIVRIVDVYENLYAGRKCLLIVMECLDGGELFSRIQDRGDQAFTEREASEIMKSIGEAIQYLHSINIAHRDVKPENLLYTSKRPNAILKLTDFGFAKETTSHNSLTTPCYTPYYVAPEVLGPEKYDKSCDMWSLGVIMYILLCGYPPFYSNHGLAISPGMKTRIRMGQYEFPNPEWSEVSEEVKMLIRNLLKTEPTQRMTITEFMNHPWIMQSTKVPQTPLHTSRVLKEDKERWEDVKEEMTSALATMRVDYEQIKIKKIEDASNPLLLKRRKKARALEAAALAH

Sequence of MAP kinase-activated protein kinase 3 (Q16644 whole entry, canonical isoform): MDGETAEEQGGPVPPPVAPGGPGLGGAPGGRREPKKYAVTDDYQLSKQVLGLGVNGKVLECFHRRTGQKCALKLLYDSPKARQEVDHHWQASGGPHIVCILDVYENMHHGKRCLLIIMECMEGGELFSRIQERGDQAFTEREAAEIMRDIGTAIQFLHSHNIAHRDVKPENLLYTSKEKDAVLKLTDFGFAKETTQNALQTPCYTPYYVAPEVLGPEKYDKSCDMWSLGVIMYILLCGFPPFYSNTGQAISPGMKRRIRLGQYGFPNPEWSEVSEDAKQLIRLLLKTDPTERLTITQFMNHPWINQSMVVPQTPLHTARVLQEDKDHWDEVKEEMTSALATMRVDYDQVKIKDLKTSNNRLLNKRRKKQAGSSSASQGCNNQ
Sequence of Calcium/calmodulin-dependent protein kinase type II subunit gamma (Q13555 whole entry): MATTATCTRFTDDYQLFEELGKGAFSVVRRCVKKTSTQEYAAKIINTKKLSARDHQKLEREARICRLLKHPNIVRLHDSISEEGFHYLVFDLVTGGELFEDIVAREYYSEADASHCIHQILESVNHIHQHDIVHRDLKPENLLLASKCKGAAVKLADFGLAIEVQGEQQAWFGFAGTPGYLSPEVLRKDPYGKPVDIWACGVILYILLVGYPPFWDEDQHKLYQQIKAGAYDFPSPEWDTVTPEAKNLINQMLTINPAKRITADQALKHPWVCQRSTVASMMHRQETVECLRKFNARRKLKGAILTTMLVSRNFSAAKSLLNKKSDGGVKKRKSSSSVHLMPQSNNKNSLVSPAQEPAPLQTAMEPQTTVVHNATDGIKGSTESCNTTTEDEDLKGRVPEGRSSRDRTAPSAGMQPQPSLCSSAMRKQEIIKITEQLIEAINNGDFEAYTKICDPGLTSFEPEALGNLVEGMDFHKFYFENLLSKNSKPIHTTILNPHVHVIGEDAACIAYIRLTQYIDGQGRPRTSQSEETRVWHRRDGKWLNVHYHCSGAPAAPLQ
Sequence of Casein kinase I isoform gamma-1 (Q9HCP0 whole entry, canonical isoform): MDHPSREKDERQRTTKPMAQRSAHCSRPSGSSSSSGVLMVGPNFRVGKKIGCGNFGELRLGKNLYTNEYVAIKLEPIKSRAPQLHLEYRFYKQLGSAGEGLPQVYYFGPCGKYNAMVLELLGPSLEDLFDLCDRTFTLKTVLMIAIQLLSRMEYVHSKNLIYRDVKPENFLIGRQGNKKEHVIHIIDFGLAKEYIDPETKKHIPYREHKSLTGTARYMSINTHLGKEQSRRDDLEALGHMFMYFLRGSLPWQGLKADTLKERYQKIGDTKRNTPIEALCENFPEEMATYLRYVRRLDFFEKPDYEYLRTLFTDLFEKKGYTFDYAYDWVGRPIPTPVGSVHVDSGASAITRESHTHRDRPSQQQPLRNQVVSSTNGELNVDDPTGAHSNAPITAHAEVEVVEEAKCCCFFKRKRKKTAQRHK

O=C1C2=[N+]([O-])[C@H]3CCCC[C@H]3[N+]([O-])=C2c2ccccc21
IC50 [1]: 10.2 µM (active)

NC1CCC(Nc2nccc(-c3c[nH]c4ncccc34)n2)CC1 (stereo unspecified)
Ki [2]: > 1.58 µM (inactive) | Ki [3]: > 10 µM (inactive) | Ki [4]: 0.1 µM (active) | Ki [5]: 0.00398 µM (active) | Ki [6]: 0.794 µM (active)
